The results in this text go back to patent US8168665B2, “Substituted 2-phenyl-benzimidazoles and their use as pharmaceuticals” (Sanofi-Aventis, priority 2006, dated 2012).

Molecules are shown by their SMILES. pEC50: −log10 of the molar value.

For the assay, the system named is eNOS promoter. The experiment in a line: Activation of eNOS transcription (eNOS promoter-luciferase reporter, human endothelial cell line). The class given is cell-based. The settings on record: human endothelial cell line stably transfected with eNOS promoter-luciferase construct, 18 h incubation, determined graphically; read-out: EC50 values of transcription induction ratios (TIR). Here is the method: A) Activation of eNOS Transcription
Activation of eNOS transcription was measured as described in detail by Li et al., “Activation of protein kinase C alpha and/or epsilon enhances transcription of the human endothelial nitric oxide synthase gene”, Mol. Pharmacol. 53 (1998) 630. Briefly, a 3.5 kB long fragment 5′ of the starting codon of the eNOS gene was cloned, sequenced and cloned in firefly luciferase expression plasmids to monitor activation of the eNOS promoter by reporter gene activity. A human endothelial cell line stable transfected and expressing this promoter-reporter construct was used for compound testing. Cells were incubated for 18 h with the compounds.
All compounds were dissolved in sterile dimethyl sulfoxide (DMSO). A final concentration of 0.5% DMSO in complete medium was allowed. Induction of reporter gene expression in these cells was measured using a standard luciferase assay system (Promega, Cat. No. E150) according to the manufacturer's instructions. Luciferase induction in cells incubated with compounds were compared to those incubated with solvent alone. The ratio of both activities (transcription induction ratio, TIR) was plotted as a function of compound concentration. Typically, TIR values started at low concentrations at a ratio of 1, indicating no compound effect, and extended up to a maximum TIR value TIR(max) which indicates the increase of the eNOS transcription. EC50 values of transcription induction ratios as a function of compound concentration were determined graphically.
On the technique in general: In a reporter assay the amount or activity of a reporter protein is the signal.

Consider `Cc1ccc(-c2nc3cc(/C(N)=N/O)ccc3[nH]2)cc1` [Example 4, N-Hydroxy-2-p-tolyl-1H-benzoimidazole-5-carboxamidine], for which the pEC50 was more than 6.30.

For `CCOC(=O)O/N=C(\N)c1ccc2[nH]c(-c3ccc(F)cc3)nc2c1` [Example 5, 2-(4-Fluoro-phenyl)-N-ethoxycarbonyl-oxy-1H-benzoimidazole-5-carboxamidine], the pEC50 is more than 6.30.

For `COC(=O)O/N=C(\N)c1ccc2[nH]c(-c3ccc(F)cc3)nc2c1` [Example 6, 2-(4-Fluoro-phenyl)-N-methoxycarbonyl-oxy-1H-benzoimidazole-5-carboxamidine], the pEC50 was more than 6.30.

As to `CC(C)OC(=O)O/N=C(\N)c1ccc2[nH]c(-c3ccc(F)cc3)nc2c1` [Example 7, 2-(4-Fluoro-phenyl)-N-isopropyloxycarbonyl-oxy-1H-benzoimidazole-5-carboxamidine], the pEC50 was more than 6.30.
